From patent US20230065953A1, “NOVEL HETEROARYL-TRIAZOLE COMPOUNDS AS PESTICIDES” (Bayer Aktiengesellschaft, priority 2019, published 2023)

Assays:
Format in all cases: in vivo
[1] = system: Rhipicephalus microplus larvae (strain Parkhurst, resistant against synthetic pyrethroids); experiment: Rhipicephalus (Boophilus) microplus in-vitro contact test, larval cattle tick; conditions: 5 μg/cm^2 (=500 g/ha), after 48 hours, read-out: efficacy (larvae dead or moribund)
How it was run: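 Larvae (20–50 per tube) were exposed for 48 h at 27 °C and 85% relative humidity to dried acetone residues lining glass tubes, where 900 ppm corresponds to 5 μg/cm^2. Loss of negative geotaxis defined dead or moribund larvae, expressed as percent efficacy.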

[2] = system: adult engorged female ticks (Rhipicephalus microplus); experiment: Rhipicephalus (Boophilus) microplus injection test; conditions: 168 h, 4 μg/animal, egg deposition after 7 days, read-out: efficacy (infertile eggs)
Procedure: Rhipicephalus (Boophilus) Microplus—Injection Test
(§1) Solvent: dimethyl sulfoxide
To produce a suitable preparation of active compound, 10 mg of active compound are dissolved in 0.5 mL solvent, and the concentrate is diluted with solvent to the desired concentration.
Five adult engorged female ticks (Rhipicephalus microplus) are injected with 1 μL compound solution into the abdomen. The ticks are transferred into replica plates and incubated in a climate chamber.
After 7 days egg deposition of fertile eggs is monitored. Eggs where fertility is not visible are stored in a climate chamber till hatching after about 42 days. An efficacy of 100% means all eggs are infertile; 0% means all eggs are fertile.

[3] = system: adult unfed cat fleas (Ctenocephalides felis); experiment: Ctenocephalides felis oral test; conditions: 48 h
Procedure: Ctenocephalides felis—Oral Test
as §1
To produce a suitable preparation of active compound, 10 mg of active compound are dissolved in 0.5 mL solvent, and the concentrate is diluted with cattle blood to the desired concentration.
Approximately 20 adult unfed cat fleas (Ctenocephalides felis) are placed in flea chambers. The blood chamber, sealed with parafilm on the bottom, are filled with cattle blood supplied with compound solution and placed on the gauze covered top of the flea chamber, so that the fleas are able to suck the blood. The blood chamber is heated to 37° C. whereas the flea chamber is kept at room temperature.
After 2 days mortality in % is determined. 100% means all the fleas have been killed; 0% means none of the fleas have been killed.

[4] = system: adult brown dog ticks (Rhipicephalus sanguineus); experiment: Rhipicephalus sanguineus in-vitro contact test with adult brown dog ticks; conditions: 5 μg/cm^2 (=500 g/ha), after 48 hours, read-out: efficacy (ticks dead or moribund)
Procedure: Rhipicephalus sanguineus—In-Vitro Contact Tests with Adult Brown Dog Ticks
(§2) 9 mg compound is solved in 1 mL acetone and diluted with acetone to the desired concentration. 250 μL of the test solution is filled in 25 mL glass test tubes and homogeneously distributed on the inner walls by rotation and tilting on a shaking device (2 h at 30 rpm). With a compound concentration of 900 ppm, an inner surface of 44.7 cm^2 and a homogeneous distribution, a dose of 5 μg/cm^2 is achieved.
(§3) After the solvent has evaporated, each test tube is filled with 5-10 adult brown dog ticks (Rhipicephalus sanguineus), closed with a perforated lid and incubated in a lying position at room temperature and relative humidity. After 48 hours efficacy is determined. The ticks are patted on the ground of the tubes and are incubated on a heating plate at 45-50° C. for at most 5 minutes. Immotile or uncoordinated moving ticks, which are not able to escape the heat by climbing upwards, are marked as dead or moribund.
An efficacy of 100% means all ticks are dead or moribund; 0% means no ticks are dead or moribund.

[5] = system: green peach aphid (Myzus persicae); experiment: Myzus persicae oral test; conditions: 120 h
Procedure: Myzus persicae—oral test • Solvent: 100 parts by weight acetone
To produce a suitable preparation of active compound, 1 part by weight of active compound is mixed with the stated amount of solvent, and the concentrate is diluted with water to the desired concentration. 50 μL compound solution is filled in microtiter plates and 150 μL IPL41 insect medium (33%+15% sugar) is added to obtain a total volume of 200 μL per well. Afterwards the plates are sealed with parafilm through which a mixed population of the green peach aphid (Myzus persicae) can suck on the compound preparation.
After 5 days mortality in % is determined. 100% means all aphids have been killed and 0% means none of the aphids have been killed.

[6] = system: fall armyworm larvae (Spodoptera frugiperda); experiment: Spodoptera frugiperda spray test (maize leaf sections); conditions: 168 h
How it was run: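 Maize leaf sections sprayed with compound in acetone/dimethylformamide, diluted in water with 1000 ppm alkylarylpolyglycol ether emulsifier. Dried sections infested with fall armyworm larvae. Mortality (%) scored after 7 days; 100% = all caterpillars killed.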

[7] = system: larvae of the banded cucumber beetle (Diabrotica balteata); experiment: Diabrotica balteata spray test; conditions: 168 h, 100 g/ha (=32 μg/well), wheat seeds, after 7 days, read-out: efficacy (seedling growth)
How it was run: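 Wheat seeds germinated 1 day on agar were sprayed with compound in acetone/dimethylformamide with alkylarylpolyglycol ether emulsifier, diluted in emulsifier-containing water. Each unit then received 10-20 larvae, and % efficacy was scored after 7 days.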

[8] = system: adult cat fleas (Ctenocephalides felis); experiment: Ctenocephalides felis in-vitro contact test, adult cat flea; conditions: 5 μg/cm^2 (=500 g/ha), after 48 hours
Procedure: Ctenocephalides felis—In-Vitro Contact Tests Adult Cat Flea
as §2
as §3, with “cat fleas (Ctenocephalides felis),” for “brown dog ticks (Rhipicephalus sanguineus),”, “fleas” for “ticks”, “fleas,” for “ticks,”
An efficacy of 100% means all fleas are dead or moribund; 0% means no fleas are dead or moribund.

[9] = system: adult mosquitoes Aedes aegypti strain MONHEIM; experiment: Aedes aegypti test (AEDSAE surface treatment & contact assay); conditions: surface concentration 20 mg/m^2, 30 min exposure, 24 hours after contact, read-out: efficacy (mortality)
Procedure: Aedes aegypti test (AEDSAE surface treatment & contact assay) • Solvent: Aceton+2000 ppm rapeseed oil methyl ester (RME)
(§4) In order to produce a sufficient, active ingredient containing solution it is necessary to solve the test compound in the solvent-mix (acetone at 2 mg/ml/RME 2000 ppm). This solution is pipetted onto a glazed tile and after evaporation of the acetone, adult mosquitoes of the species Aedes aegypti strain MONHEIM are placed onto the dried surface. The exposure time is 30 minutes.
(§5) Mortality in percent (%) is determined 24 hours after contact of the insects to the treated surface. 100% mortality means that all tested insects are dead, whereas 0% means that no insect died.

[10] = system: adult flies Musca domestica strain WHO-N; experiment: Musca domestica test (MUSCDO surface treatment & contact assay); conditions: 24 hours after contact, read-out: efficacy (mortality)
Procedure: Musca domestica Test (MUSCDO Surface Treatment & Contact Assay) • Solvent: Aceton+2000 ppm rapeseed oil methyl ester (RME)
as §4, with “flies” for “mosquitoes”, “Musca domestica” for “Aedes aegypti”, “WHO-N” for “MONHEIM”
as §5

[11] = system: green peach aphid (Myzus persicae); experiment: Myzus persicae spray test; conditions: foliar, 120 h, Chinese cabbage leaf disks, after 5 days
How it was run: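 Chinese cabbage leaf discs infested with all instars of the aphid were sprayed with compound prepared in acetone/DMF and diluted in water containing 1000 ppm emulsifier. Mortality (%) was scored after 5 days, 100% meaning all aphids killed and 0% none.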

[12] = system: larvae of the southern green stink bug (Nezara viridula); experiment: Nezara viridula spray test; conditions: in Hordeum vulgare, 96 h
How it was run: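 Barley plants sprayed with compound in acetone/dimethylformamide, diluted in water with 1000 ppm alkylarylpolyglycol ether emulsifier, then infested with Nezara viridula larvae. Percent mortality read after 4 days (100% = all killed, 0% = none).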

SMILES | pest or weed control at 5 µg/cm2 [1] [%] | pest or weed control at 0.004 mg [2] [%] | mortality at 100 ppm [3] [%] | pest or weed control at 5 µg/cm2, 500 g/ha [4] [%] | mortality at 4 ppm [5] [%] | mortality at 100 g/ha [6] [%] | pest or weed control at 32 µg/disc, 100 g/ha [7] [%] | efficacy (fleas dead or moribund) [8] [%] | mortality at 20 mg/m2 [9] [%] | mortality at 4 mg/m2 ([10]; surface concentration 4 mg/m^2, 30 min exposure) [%] | mortality at 20 mg/m2 ([10]; surface concentration 20 mg/m^2, 30 min exposure) [%] | mortality at 100 g/ha [11] [%] | mortality at 500 g/ha [12] [%]
COCCN(C)C(=O)c1cnc(-n2nc(C)nc2[C@H](C)NC(=O)c2cc(C(F)(F)F)cc(C(F)(F)F)c2)s1 [I-3] | 100 | 100 | 80 | 100 | 90 | 100 | – | – | – | – | – | – | –
Cc1nc([C@H](C)NC(=O)c2cc(C(F)(F)F)cc(C(F)(F)F)c2)n(-c2ncc(C(=O)N(C)C3CC3)s2)n1 [I-7] | 100 | 100 | 100 | 100 | 100 | 100 | 100 | – | – | – | – | – | –
Cc1nc([C@H](C)NC(=O)c2cc(C(F)(F)F)cc(C(F)(F)F)c2)n(-c2ncc(C(=O)N(C)CC(C)C)s2)n1 [I-8] | 100 | 100 | 100 | 100 | 100 | 100 | 100 | – | – | – | – | – | –
Cc1nc([C@H](C)NC(=O)c2cc(C(F)(F)F)cc(C(F)(F)F)c2)n(-c2ncc(C(=O)N(C)CC(F)(F)F)s2)n1 [I-11] | 100 | 100 | 100 | 100 | 100 | 100 | 100 | – | – | – | – | – | –
Cc1nc([C@H](C)NC(=O)c2cc(Cl)cc(Br)c2)n(-c2ncc(C#N)s2)n1 [I-12] | 100 | 100 | 100 | 100 | – | 100 | 100 | – | – | – | – | – | –
Cc1nc([C@H](C)NC(=O)c2cc(Br)cc(Br)c2)n(-c2ncc(C#N)s2)n1 [I-13] | 100 | 100 | 100 | 100 | – | 83 | 100 | – | – | – | – | – | –
Cc1nc([C@H](C)NC(=O)c2cc(Cl)cc(C(F)(F)C(F)(F)F)c2)n(-c2ncc(C#N)s2)n1 [I-19] | 100 | 100 | 100 | 80 | – | 100 | 100 | – | – | – | – | – | –
Cc1nc([C@H](C)NC(=O)c2cc(Cl)nc(C(F)(F)F)c2)n(-c2ncc(C#N)s2)n1 [I-20, 2-chloro-N-{(1S)-1-[1-(5-cyano-1,3-thiazol-2-yl)-3-methyl-1H-1,2,4-triazol-5-yl]ethyl}-6-(trifluoromethyl)isonicotinamide] | 100 | 100 | 100 | 100 | – | – | 100 | – | – | – | – | – | –
CC(NC(=O)c1cc(OC(F)(F)F)cc(C2CC2)c1)c1ncnn1-c1ncc(C#N)s1 (centres unmarked) [I-30] | 100 | 100 | 100 | 100 | 100 | 100 | 100 | – | – | – | – | – | –
C[C@H](NC(=O)c1cc(I)cc(OC(F)F)c1)c1ncnn1-c1ncc(C#N)s1 [I-38] | 100 | – | – | 80 | – | – | 100 | 90 | – | – | – | – | –
C[C@H](NC(=O)c1cc(Br)cc(OC(F)F)c1)c1ncnn1-c1ncc(C#N)s1 [I-39] | 90 | 100 | 100 | – | 100 | 100 | 100 | 80 | 80 to 100 | 90 to 100 | 80 to 100 | – | –
CNC(=O)c1cnc(-n2nc(C)nc2[C@H](C)NC(=O)c2cc(Cl)cc(C(F)(F)F)c2)s1 [I-69] | 80 | 100 | – | 80 | 100 | 100 | 100 | 90 | – | – | – | 90 | –
Cc1nc([C@H](C)NC(=O)c2cc(Br)cc(Br)c2)n(-c2ncc(C(=O)N(C)CC#N)s2)n1 [I-72] | 100 | – | – | 100 | 100 | 100 | 100 | 80 | – | – | – | – | –
Cc1nc([C@H](C)NC(=O)c2cc(Br)cc(OC(F)(F)F)c2)n(-c2ncc(C(=O)N(C)CC#N)s2)n1 [I-125] | 100 | – | – | 80 | – | 100 | 100 | 100 | – | – | – | 90 | 100
